# Measurements reported in PubChem BioAssay AID228 (DTP/NCI, 2004).
# Where “and” joins values, the source holds several entries; their conditions need not be identical. Equal values may be shown once. Inconclusive results are not listed.
# Tested on: BDF1 mice, Friend leukemia sc, tumor weight T/C
# Assay: NCI In Vivo Anticancer Drug Screen. Data for tumor model Friend Virus Leukemia (Solid) (subcutaneous) in B6D2F1 (BDF1) mice
# Details: endpoint: mean tumor weight, higher = larger tumour
# Description: The antitumor activity of compounds was measured in mice bearing transplantable tumors. Survival or tumor size were measured and the results are expressed as the measurement made in the treated group (T) divided by the measurement made in the vehicle treated control group (C). The tumor model used in this assay is Friend Virus Leukemia (Solid) (subcutaneous) in B6D2F1 (BDF1) mice
# [1] = dose: 37.5 mg/kg/injection, schedule: Q01DX011 (ip), vehicle: carboxymethylcellulose (CMC)
# [2] = dose: 62.5 mg/kg/injection, schedule: Q01DX011 (ip), vehicle: carboxymethylcellulose (CMC)
# [3] = dose: 75.0 mg/kg/injection, schedule: Q01DX011 (ip), vehicle: carboxymethylcellulose (CMC)
# [4] = dose: 125.0 mg/kg/injection, schedule: Q01DX011 (ip), vehicle: carboxymethylcellulose (CMC)
# [5] = dose: 150.0 mg/kg/injection, schedule: Q01DX011 (ip), vehicle: carboxymethylcellulose (CMC)
# [6] = dose: 250.0 mg/kg/injection, schedule: Q01DX011 (ip), vehicle: carboxymethylcellulose (CMC)
# [7] = dose: 300.0 mg/kg/injection, schedule: Q01DX011 (ip), vehicle: carboxymethylcellulose (CMC)
# [8] = dose: 1.0 mg/kg/injection, schedule: Q01DX011 (ip), vehicle: carboxymethylcellulose (CMC)
# [9] = dose: 2.0 mg/kg/injection, schedule: Q01DX011 (ip), vehicle: carboxymethylcellulose (CMC)
# [10] = dose: 4.0 mg/kg/injection, schedule: Q01DX011 (ip), vehicle: carboxymethylcellulose (CMC)
# [11] = dose: 50.0 mg/kg/injection, schedule: Q01DX011 (ip), vehicle: saline
# [12] = dose: 100.0 mg/kg/injection, schedule: Q01DX011 (ip), vehicle: saline
# [13] = dose: 200.0 mg/kg/injection, schedule: Q01DX011 (ip), vehicle: saline
# [14] = dose: 500.0 mg/kg/injection, schedule: Q01DX011 (ip), vehicle: carboxymethylcellulose (CMC)
# [15] = dose: 125.0 mg/kg/injection, schedule: Q01DX011 (ip), vehicle: saline
# [16] = dose: 25.0 mg/kg/injection, schedule: Q01DX011 (ip), vehicle: carboxymethylcellulose (CMC)
# [17] = dose: 100.0 mg/kg/injection, schedule: Q01DX011 (ip), vehicle: carboxymethylcellulose (CMC)
smiles,measurement,setting,value
CCOC(N)=O,T/C,[1],68 % of control
same,T/C,"dose: 62.12 mg/kg/injection, schedule: Q01DX011 (ip), vehicle: carboxymethylcellulose (CMC)",110 % of control
same,T/C,[2],58 % of control
same,T/C,[3],50 % of control
same,T/C,[4],67 % of control
same,T/C,"dose: 125.25 mg/kg/injection, schedule: Q01DX011 (ip), vehicle: carboxymethylcellulose (CMC)",95 % of control
same,T/C,[5],52 % of control and 36 % of control
same,T/C,[6],58 % of control and 66 % of control and 50 % of control
same,T/C,"dose: 250.5 mg/kg/injection, schedule: Q01DX011 (ip), vehicle: carboxymethylcellulose (CMC)",115 % of control
same,T/C,[7],21 % of control
same,T/C,"dose: 334.0 mg/kg/injection, schedule: Q01DX011 (ip), vehicle: carboxymethylcellulose (CMC)",56 % of control and 37 % of control
same,T/C,"dose: 450.0 mg/kg/injection, schedule: Q01DX011 (ip), vehicle: carboxymethylcellulose (CMC)",20 % of control
same,T/C,"dose: 600.0 mg/kg/injection, schedule: Q01DX011 (ip), vehicle: carboxymethylcellulose (CMC)",26 % of control
same,T/C,"dose: 800.0 mg/kg/injection, schedule: Q01DX011 (ip), vehicle: carboxymethylcellulose (CMC)",36 % of control
N#CCSc1ncnc2nc[nH]c12,T/C,"dose: 15.5 mg/kg/injection, schedule: Q01DX011 (ip), vehicle: carboxymethylcellulose (CMC)",91 % of control
same,T/C,"dose: 31.0 mg/kg/injection, schedule: Q01DX011 (ip), vehicle: carboxymethylcellulose (CMC)",32 % of control
same,T/C,[2],18 % of control
CC(=O)[C@H]1CC[C@H]2[C@@H]3CCC4=CC(=O)[C@H](C)C[C@]4(C)[C@@]3(F)[C@@H](O)C[C@]12C,T/C,"dose: 9.5 mg/kg/injection, schedule: Q01DX011 (sc), vehicle: steriod suspending solution",71 % of control
same,T/C,"dose: 19.0 mg/kg/injection, schedule: Q01DX011 (sc), vehicle: steriod suspending solution",50 % of control
same,T/C,"dose: 75.0 mg/kg/injection, schedule: Q01DX011 (sc), vehicle: steriod suspending solution",25 % of control and 42 % of control and 46 % of control
same,T/C,"dose: 150.0 mg/kg/injection, schedule: Q01DX011 (sc), vehicle: steriod suspending solution",28 % of control
same,T/C,"dose: 300.0 mg/kg/injection, schedule: Q01DX011 (sc), vehicle: steriod suspending solution",19 % of control
CC(CCC(C)OS(C)(=O)=O)OS(C)(=O)=O (configuration not stated),T/C,"dose: 0.5 mg/kg/injection, schedule: Q01DX011 (ip), vehicle: carboxymethylcellulose (CMC)",82 % of control
same,T/C,[8],91 % of control
same,T/C,[9],103 % of control
same,T/C,[10],105 % of control
same,T/C,"dose: 6.0 mg/kg/injection, schedule: Q01DX011 (ip), vehicle: carboxymethylcellulose (CMC)",98 % of control
same,T/C,"dose: 6.25 mg/kg/injection, schedule: Q01DX011 (ip), vehicle: carboxymethylcellulose (CMC)",56 % of control
CC(C)NCC(=O)c1ccc(O)c(O)c1,T/C,[11],95 % of control
same,T/C,[12],110 % of control
same,T/C,[13],102 % of control
COc1ccc2c(c1OC)C(=O)O[C@@H]2[C@H]1c2c(cc3c(c2OC)OCO3)CCN1C,T/C,[11],110 % of control
same,T/C,[12],99 % of control
same,T/C,[13],85 % of control
C[C@]12CCC(=O)C=C1CC[C@@H]1[C@@H]2[C@@H](O)C[C@@]2(C)[C@H]1CC[C@]2(O)C(=O)COC(=O)c1ccc([N+](=O)[O-])cc1Cl,T/C,"dose: 50.0 mg/kg/injection, schedule: Q01DX011 (sc), vehicle: steriod suspending solution",69 % of control
same,T/C,"dose: 100.0 mg/kg/injection, schedule: Q01DX011 (sc), vehicle: steriod suspending solution",58 % of control
same,T/C,"dose: 200.0 mg/kg/injection, schedule: Q01DX011 (sc), vehicle: steriod suspending solution",55 % of control
same,T/C,"dose: 400.0 mg/kg/injection, schedule: Q01DX011 (sc), vehicle: steriod suspending solution",35 % of control
O=C(O)Cc1ccc(C2CCCCC2)cc1,T/C,[1],106 % of control
same,T/C,[3],114 % of control
same,T/C,[5],106 % of control
same,T/C,[7],94 % of control
Nc1nc(=S)c2ncn(C3OC(CO)C(O)C3O)c2[nH]1 (configuration not stated),T/C,"dose: 0.18 mg/kg/injection, schedule: Q01DX011 (ip), vehicle: carboxymethylcellulose (CMC)",74 % of control
same,T/C,"dose: 0.37 mg/kg/injection, schedule: Q01DX011 (ip), vehicle: carboxymethylcellulose (CMC)",63 % of control
same,T/C,"dose: 0.6 mg/kg/injection, schedule: Q01DX011 (ip), vehicle: carboxymethylcellulose (CMC)",53 % of control
same,T/C,[8],36 % of control
same,T/C,"dose: 1.5 mg/kg/injection, schedule: Q01DX011 (ip), vehicle: carboxymethylcellulose (CMC)",31 % of control and 48 % of control
CO[C@H]1CC[C@@]2(C)[C@@H](CC[C@H]3[C@@H]4C[C@H](O)C[C@@]4(C)CC[C@@H]32)C1,T/C,"dose: 10.0 mg/kg/injection, schedule: Q01DX011 (sc), vehicle: steriod suspending solution",108 % of control
same,T/C,"dose: 15.0 mg/kg/injection, schedule: Q01DX011 (sc), vehicle: steriod suspending solution",104 % of control
[I][Hg][CH2]C1OCCOC1[CH2][Hg][I] (configuration not stated),T/C,"dose: 18.0 mg/kg/injection, schedule: Q01DX011 (ip), vehicle: carboxymethylcellulose (CMC)",66 % of control
same,T/C,"dose: 37.0 mg/kg/injection, schedule: Q01DX011 (ip), vehicle: carboxymethylcellulose (CMC)",76 % of control
same,T/C,[3],46 % of control
COc1ccc(Nc2ccnc3cc(Cl)ccc23)cc1CN(CCCl)CCCl,T/C,[8],81 % of control
same,T/C,[9],76 % of control
same,T/C,[10],42 % of control
OCC1OC(n2cnc3c(Cl)ncnc32)C(O)C1O (configuration not stated),T/C,"dose: 62.0 mg/kg/injection, schedule: Q01DX011 (ip), vehicle: carboxymethylcellulose (CMC)",93 % of control
same,T/C,[4],105 % of control
same,T/C,[6],109 % of control
same,T/C,[14],115 % of control
CC1CCC2(C(=O)O)CCC3(C)C(=CCC4C5(C)CCC(O)C(C)(C)C5CCC43C)C2C1C (configuration not stated),T/C,"dose: 50.0 mg/kg/injection, schedule: Q01DX011 (ip), vehicle: other",76 % of control
same,T/C,"dose: 100.0 mg/kg/injection, schedule: Q01DX011 (ip), vehicle: other",69 % of control
same,T/C,"dose: 200.0 mg/kg/injection, schedule: Q01DX011 (ip), vehicle: other",115 % of control
COC(=S)SCN(CSC(=S)OC)c1ccccc1Cl,T/C,[15],95 % of control
same,T/C,"dose: 250.0 mg/kg/injection, schedule: Q01DX011 (ip), vehicle: saline",107 % of control
CC1(C)N=C(N)N=C(N)N1c1cccc(Br)c1,T/C,[16],88 % of control
Nc1ccccc1N,T/C,[16],84 % of control
same,T/C,[17],11 % of control and 13 % of control and 18 % of control
same,T/C,[5],10 % of control
CCCCCCCCCCCCCS,T/C,"dose: 50.0 mg/kg/injection, schedule: Q01DX011 (ip), vehicle: carboxymethylcellulose (CMC)",109 % of control
same,T/C,[17],105 % of control
same,T/C,"dose: 200.0 mg/kg/injection, schedule: Q01DX011 (ip), vehicle: carboxymethylcellulose (CMC)",101 % of control
Nc1ccc2ccccc2c1N=Nc1ccccc1,T/C,[2],66 % of control
same,T/C,[4],58 % of control
same,T/C,[14],25 % of control and 27 % of control
O=c1cnn(C2OC(CO)C(O)C2O)c(=O)[nH]1 (configuration not stated),T/C,"dose: 62.5 mg/kg/injection, schedule: Q01DX011 (ip), vehicle: saline",160 % of control
same,T/C,[15],170 % of control
same,T/C,"dose: 500.0 mg/kg/injection, schedule: Q01DX011 (ip), vehicle: saline",105 % of control
CO/[N+]([O-])=C\C(=O)N/C=C/C(=O)O,T/C,"dose: 1.25 mg/kg/injection, schedule: Q01DX011 (ip), vehicle: carboxymethylcellulose (CMC)",103 % of control
same,T/C,"dose: 2.5 mg/kg/injection, schedule: Q01DX011 (ip), vehicle: carboxymethylcellulose (CMC)",105 % of control
same,T/C,"dose: 10.0 mg/kg/injection, schedule: Q01DX011 (ip), vehicle: carboxymethylcellulose (CMC)",61 % of control
same,T/C,"dose: 15.0 mg/kg/injection, schedule: Q01DX011 (ip), vehicle: carboxymethylcellulose (CMC)",53 % of control
same,T/C,[16],52 % of control
